Measurements: a compilation of properties of binary mixtures (doi:10.1016/j.molliq.2015.11.008)

Assay: xn = mol fraction of the nth substance listed
Details: 298.15 K, 101 kPa

For `CC(=O)[O-].CC[NH2+]CC` + O, the electrical conductivity (x1 = 0.0079) was 1.4 S/m, the electrical conductivity (x1 = 0.0285) was 2.35 S/m and the electrical conductivity (x1 = 0.0365) was 2.46 S/m. It also gave an electrical conductivity (x1 = 0.0444) of 2.49 S/m, an electrical conductivity (x1 = 0.0602) of 2.47 S/m and an electrical conductivity (x1 = 0.0777) of 2.33 S/m. For the same molecule, the viscosity (x1 = 0.098) was 5.81 mPa·s, the viscosity (x1 = 0.298) was 26.8 mPa·s and the electrical conductivity (x1 = 0.2995) was 0.965 S/m. The electrical conductivity (x1 = 0.3994) was 0.669 S/m, the viscosity (x1 = 0.403) was 40.7 mPa·s and the electrical conductivity (x1 = 0.4992) was 0.525 S/m. The viscosity (x1 = 0.501) was 48.1 mPa·s, the viscosity (x1 = 0.597) was 53.1 mPa·s and the electrical conductivity (x1 = 0.599) was 0.407 S/m. The viscosity (x1 = 0.662) was 54.6 mPa·s, the electrical conductivity (x1 = 0.794) was 0.308 S/m and the viscosity (x1 = 0.805) was 55.7 mPa·s. It also gave an electrical conductivity (x1 = 0.8986) of 0.282 S/m and an electrical conductivity (x2 = 0.0048) of 0.262 S/m.
